One assay concerns the target T1, Human SSAO (Homo sapiens, UniProt Q16853).
T1 sequence (Q16853 1-763): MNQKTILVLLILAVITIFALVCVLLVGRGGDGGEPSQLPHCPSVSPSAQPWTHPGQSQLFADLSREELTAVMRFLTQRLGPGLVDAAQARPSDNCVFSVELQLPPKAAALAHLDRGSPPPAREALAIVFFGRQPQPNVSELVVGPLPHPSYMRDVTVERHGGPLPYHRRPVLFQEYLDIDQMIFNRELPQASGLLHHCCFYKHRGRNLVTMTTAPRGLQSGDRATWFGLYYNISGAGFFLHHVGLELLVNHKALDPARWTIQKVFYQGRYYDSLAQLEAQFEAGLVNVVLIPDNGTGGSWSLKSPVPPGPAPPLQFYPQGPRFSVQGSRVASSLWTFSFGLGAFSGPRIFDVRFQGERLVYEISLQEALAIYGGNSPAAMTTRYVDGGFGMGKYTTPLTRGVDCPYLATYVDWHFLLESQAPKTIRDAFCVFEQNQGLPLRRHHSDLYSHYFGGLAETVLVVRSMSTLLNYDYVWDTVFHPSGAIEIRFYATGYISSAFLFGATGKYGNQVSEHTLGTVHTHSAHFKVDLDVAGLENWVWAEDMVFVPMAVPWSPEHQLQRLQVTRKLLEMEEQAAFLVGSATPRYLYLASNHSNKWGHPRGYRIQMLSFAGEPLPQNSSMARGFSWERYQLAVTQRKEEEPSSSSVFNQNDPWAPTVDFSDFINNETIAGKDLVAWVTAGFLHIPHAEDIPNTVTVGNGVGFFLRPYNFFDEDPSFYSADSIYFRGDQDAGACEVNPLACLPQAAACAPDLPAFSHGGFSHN
Put plainly: SSAO activity, hydrogen peroxide production relative to benzylamine (human). It counts as biochemical. To be noted: compound at 1 mM. The protocol:
(§1) The continuous spectrophotometric detection of SSAO-dependent H2O2 production based on a peroxidase-coupled reaction was performed as previously described by Abella et al. (2004, Diabetologia 47: 429-438) and following the procedure described by Holt et al., (1997, Anal. Biochem. 244: 384-392).
(§2) Compounds listed in Table 1 were prepared according to the methods described above, purity was determined by HPLC at 220 nm, molecular weight calculated by mass spectrometer. Human and mouse SSAO activity was determined by detecting the production of hydrogene peroxide in the presence of the different compounds present at 1 mM for human and 100 μM for mice activity measurements. Compounds in Table 2″ were similarly assayed. Values are means of percentages relative to benzylamine-related hydrogen production. Kinetic Parameters for select compounds are set forth in Table 3 (Mouse SSAO) and Table 4 (Human SSAO).

The next assay addresses T2, mouse SSAO (Mus musculus, UniProt O70423).
T2 sequence (O70423 1-765): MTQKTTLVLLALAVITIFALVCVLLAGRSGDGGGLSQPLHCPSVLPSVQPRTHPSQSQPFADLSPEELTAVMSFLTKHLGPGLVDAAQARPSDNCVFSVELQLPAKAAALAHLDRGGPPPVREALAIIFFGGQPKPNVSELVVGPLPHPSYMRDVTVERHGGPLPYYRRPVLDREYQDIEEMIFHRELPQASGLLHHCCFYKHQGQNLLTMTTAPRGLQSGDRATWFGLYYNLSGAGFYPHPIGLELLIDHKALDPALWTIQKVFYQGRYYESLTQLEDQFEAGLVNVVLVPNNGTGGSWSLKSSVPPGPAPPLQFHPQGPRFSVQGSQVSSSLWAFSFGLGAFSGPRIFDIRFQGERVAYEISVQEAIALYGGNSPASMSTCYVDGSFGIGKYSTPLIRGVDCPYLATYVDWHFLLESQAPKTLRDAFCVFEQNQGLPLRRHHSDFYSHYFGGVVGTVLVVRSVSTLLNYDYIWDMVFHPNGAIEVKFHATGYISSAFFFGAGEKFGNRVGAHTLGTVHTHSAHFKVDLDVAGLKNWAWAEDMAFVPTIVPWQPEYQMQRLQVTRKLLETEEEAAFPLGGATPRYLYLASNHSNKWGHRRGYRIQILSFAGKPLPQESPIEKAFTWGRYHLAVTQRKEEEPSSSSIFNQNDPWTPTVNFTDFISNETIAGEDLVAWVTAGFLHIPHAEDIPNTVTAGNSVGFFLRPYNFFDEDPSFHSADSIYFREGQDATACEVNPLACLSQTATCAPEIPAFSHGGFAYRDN
Put plainly: SSAO activity, hydrogen peroxide production relative to benzylamine (mouse). The class given is biochemical. To be noted: compound at 100 μM. The method, then: as §1, §2

Turning to `NCc1ccccc1` [Entry 1, Benzylamine, reference compound], on Human SSAO, the “SSAO activity (% relative to benzylamine) Human” value is 100%. In addition, the “SSAO activity (% relative to benzylamine) Mouse” value on mouse SSAO is recorded as 100%.

Take `NCc1ccc(F)cc1` [Entry 3, (4-fluorophenyl)methanamine]: the “SSAO activity (% relative to benzylamine) Human” value at Human SSAO is 31.70%. The “SSAO activity (% relative to benzylamine) Mouse” value at mouse SSAO was 77.20%.

Turning to `Cc1ccc(CN)cc1` [Entry 4, p-tolylmethanamine], the “SSAO activity (% relative to benzylamine) Human” value at Human SSAO came to 0.00%. Further, the “SSAO activity (% relative to benzylamine) Mouse” value on mouse SSAO stood at 0.00%.

Take `CCc1ccc(CN)cc1` [Entry 5]: the “SSAO activity (% relative to benzylamine) Human” value on Human SSAO is recorded as 0.00%. The “SSAO activity (% relative to benzylamine) Mouse” value at mouse SSAO is recorded as 17.30%.

In the case of `CC(C)(C)c1ccc(CN)cc1` [Entry 6, (4-tert-butylphenyl)methanamine], the “SSAO activity (% relative to benzylamine) Human” value on Human SSAO was found to be 0.00%. Besides, at mouse SSAO, the “SSAO activity (% relative to benzylamine) Mouse” value is on record as 1.00%.

For the compound `CC(C)c1ccc(CN)cc1` [Entry 7, (4-isopropylphenyl)methanamine], on Human SSAO, the “SSAO activity (% relative to benzylamine) Human” value is listed as 0.00%. In addition, the “SSAO activity (% relative to benzylamine) Mouse” value at mouse SSAO stood at 0.00%.

`NCc1ccc(C(F)(F)F)cc1` [Entry 8, (4-(trifluoromethyl)phenyl)methanamine]: the “SSAO activity (% relative to benzylamine) Human” value on Human SSAO is 0.50%. Besides, the “SSAO activity (% relative to benzylamine) Mouse” value at mouse SSAO was determined as 83.00%.

In the case of `NCc1ccc(OC(F)(F)F)cc1` [Entry 9, (4-(trifluoromethoxy)phenyl)methanamine], on Human SSAO, the “SSAO activity (% relative to benzylamine) Human” value amounted to 0.00%. The “SSAO activity (% relative to benzylamine) Mouse” value at mouse SSAO is 66.20%.

Consider `COc1ccc(CN)c(OC)c1` [Entry 10, (2,4-dimethoxyphenyl)methanamine], for which, at Human SSAO, the “SSAO activity (% relative to benzylamine) Human” value is on record as 0.00%. On mouse SSAO, the “SSAO activity (% relative to benzylamine) Mouse” value is 0.00%.

As for `CCCCc1ccc(CN)cc1` [Entry 11, (4-butylphenyl)methanamine], the “SSAO activity (% relative to benzylamine) Human” value at Human SSAO was found to be 0.00%. Also, on mouse SSAO, the “SSAO activity (% relative to benzylamine) Mouse” value was found to be 27.00%.

Consider `NCc1ccc(O)c(Br)c1` [Entry 13, 4-(aminomethyl)-2-bromophenol], for which the “SSAO activity (% relative to benzylamine) Human” value on Human SSAO stood at 0.00%. Moreover, the “SSAO activity (% relative to benzylamine) Mouse” value at mouse SSAO turned out to be 0.00%.

As to `NCc1cccc([N+](=O)[O-])c1O` [Entry 14, 2-(aminomethyl)-6-nitrophenol], on Human SSAO, the “SSAO activity (% relative to benzylamine) Human” value was determined as 0.11%. For the same compound, the “SSAO activity (% relative to benzylamine) Mouse” value at mouse SSAO was 5.47%.

In the case of `NCc1ccc(-c2ccccc2)cc1` [Entry 15, biphenyl-4-yl-methanamine], the “SSAO activity (% relative to benzylamine) Human” value at Human SSAO amounted to 0.00%. At mouse SSAO, the “SSAO activity (% relative to benzylamine) Mouse” value was determined as 3.77%.

For the compound `Cc1ccc(CN)cc1F` [Entry 16, (3-fluoro-4-methylphenyl)methanamine], at Human SSAO, the “SSAO activity (% relative to benzylamine) Human” value is listed as 7.07%. Also, on mouse SSAO, the “SSAO activity (% relative to benzylamine) Mouse” value is 33.49%.

Take `COc1cc(F)cc(CN)c1` [Entry 17, (3-fluoro-5-methoxyphenyl)methanamine]: the “SSAO activity (% relative to benzylamine) Human” value on Human SSAO is given as 2.53%. For the same compound, at mouse SSAO, the “SSAO activity (% relative to benzylamine) Mouse” value was found to be 4.86%.

In the case of `COc1cccc(O)c1CN` [Entry 19, 2-(aminomethyl)-3-methoxyphenol], the “SSAO activity (% relative to benzylamine) Human” value at Human SSAO came to 0.00%. The “SSAO activity (% relative to benzylamine) Mouse” value on mouse SSAO came out at 0.00%.

For `NCc1ccc(OCc2ccccc2)cc1` [Entry 20, (4-(benzyloxy)phenyl)methanamine], the “SSAO activity (% relative to benzylamine) Human” value on Human SSAO was determined as 0.0%. Besides, on mouse SSAO, the “SSAO activity (% relative to benzylamine) Mouse” value is listed as 0.0%.

For the compound `NCc1cccc2c1OCCO2` [Entry 21, (2,3-dihydrobenzo-[b][1,4]dioxin-5-yl)methanamine], the “SSAO activity (% relative to benzylamine) Human” value on Human SSAO is 0.00%. Moreover, on mouse SSAO, the “SSAO activity (% relative to benzylamine) Mouse” value is 12.36%.

For the compound `COc1ccc(CN)cc1` [Entry 22, (4-methoxyphenyl)methanamine], the “SSAO activity (% relative to benzylamine) Human” value at Human SSAO is 0.00%. Also, on mouse SSAO, the “SSAO activity (% relative to benzylamine) Mouse” value is on record as 4.56%.

Consider `NCc1ccccc1F` [Entry 23, (2-fluorophenyl)methanamine], for which the “SSAO activity (% relative to benzylamine) Human” value at Human SSAO was determined as 1.3%. Moreover, at mouse SSAO, the “SSAO activity (% relative to benzylamine) Mouse” value came out at 44.0%.

Turning to `COc1cc(CN)cc(OC)c1` [Entry 24, (3,5-dimethoxyphenyl)methanamine], at Human SSAO, the “SSAO activity (% relative to benzylamine) Human” value stood at 0.00%. The “SSAO activity (% relative to benzylamine) Mouse” value on mouse SSAO was determined as 0.75%.

Take `NCc1ccc(CN)cc1` [Entry 25, 1,4-phenylene dimethanamine]: on Human SSAO, the “SSAO activity (% relative to benzylamine) Human” value was found to be 0.00%. At mouse SSAO, the “SSAO activity (% relative to benzylamine) Mouse” value was determined as 0.00%.

With `NCc1cccc(CN)c1` [Entry 26, 1,3-phenylene dimethanamine], the “SSAO activity (% relative to benzylamine) Human” value on Human SSAO turned out to be 0.00%. Further, at mouse SSAO, the “SSAO activity (% relative to benzylamine) Mouse” value amounted to 0.00%.

Take `NCc1ccc(C(=O)O)cc1` [Entry 27, 4-(aminomethyl)benzoic acid]: on Human SSAO, the “SSAO activity (% relative to benzylamine) Human” value was 0.00%. Besides, the “SSAO activity (% relative to benzylamine) Mouse” value on mouse SSAO was 4.06%.

Consider `COc1ccc(CN)c2ccccc12` [Entry 28, (4-methoxynaphthalen-1-yl)methanamine], for which the “SSAO activity (% relative to benzylamine) Human” value at Human SSAO is given as 0.70%. Further, at mouse SSAO, the “SSAO activity (% relative to benzylamine) Mouse” value is given as 0.00%.

`NCc1c(O)ccc2ccccc12` [Entry 29, 1-(aminomethyl)naphthalen-2-ol]: the “SSAO activity (% relative to benzylamine) Human” value on Human SSAO is recorded as 0.00%. For the same compound, at mouse SSAO, the “SSAO activity (% relative to benzylamine) Mouse” value is given as 0.00%.

Turning to `CC(N)c1cccc2ccccc12` (stereo not shown) [Entry 30, 1-(naphthalen-1-yl)ethanamine], at Human SSAO, the “SSAO activity (% relative to benzylamine) Human” value is listed as 11.00%. In addition, the “SSAO activity (% relative to benzylamine) Mouse” value on mouse SSAO is given as 0.00%.

`NCCc1ccccc1` [Entry 41, 2-phenylethanamine]: the “SSAO activity (% relative to benzylamine) Human” value at Human SSAO is on record as 8.20%. In addition, on mouse SSAO, the “SSAO activity (% relative to benzylamine) Mouse” value is 6.80%.

Turning to `NCCCc1ccccc1` [Entry 42, 3-phenylpropan-1-amine], the “SSAO activity (% relative to benzylamine) Human” value at Human SSAO is on record as 60.30%. Also, the “SSAO activity (% relative to benzylamine) Mouse” value on mouse SSAO was 44.80%.

On to `NCCOc1ccccc1` [Entry 43, 2-phenoxyethanamine], for which the “SSAO activity (% relative to benzylamine) Human” value at Human SSAO was found to be 17.93%. Besides, on mouse SSAO, the “SSAO activity (% relative to benzylamine) Mouse” value was found to be 14.60%.

As to `NCCCCc1ccccc1` [Entry 44, 4-phenylbutan-1-amine], on Human SSAO, the “SSAO activity (% relative to benzylamine) Human” value is listed as 147.63%. Also, on mouse SSAO, the “SSAO activity (% relative to benzylamine) Mouse” value was 61.18%.

As for `COc1cccc2[nH]cc(CN)c12` [Entry 45, (4-methoxy-1H-indol-3-yl)methanamine], the “SSAO activity (% relative to benzylamine) Human” value at Human SSAO worked out at 0.00%. Besides, the “SSAO activity (% relative to benzylamine) Mouse” value on mouse SSAO was 5.54%.

As for `NCCc1ccc(F)cc1` [Entry 46, 2-(4-fluorophenyl)ethanamine], the “SSAO activity (% relative to benzylamine) Human” value at Human SSAO was 16.30%. Also, the “SSAO activity (% relative to benzylamine) Mouse” value on mouse SSAO is listed as 59.80%.

As for `NCCc1ccc(O)c(O)c1` [Entry 47, 4-(2-aminoethyl)benzene-1,2-diol], at Human SSAO, the “SSAO activity (% relative to benzylamine) Human” value is recorded as 0.00%. Moreover, the “SSAO activity (% relative to benzylamine) Mouse” value at mouse SSAO amounted to 0.00%.

Consider `COc1ccc(CCN)cc1OC` [Entry 48, 2-(3,4-dimethoxyphenyl)ethanamine], for which the “SSAO activity (% relative to benzylamine) Human” value on Human SSAO is on record as 0.00%. In addition, on mouse SSAO, the “SSAO activity (% relative to benzylamine) Mouse” value turned out to be 3.80%.

For the origin of these results see US20070066682A1, “Arylalkylamine vanadium (V) salts for the treatment and/or prevention of Diabetes mellitus” (priority 2005, published 2007).
